Experiments:
Experiment in all cases: relative viability (nuclei count vs DMSO), 5 days (fraction); higher = more cells survive
NCI-H1755 = system: NCI-H1755
Procedure, shortened: (§1)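 A single step with final 0.05% Triton X-100, 1% formaldehyde and 1 ug/ml Hoechst fixed the cells and stained nuclei 5 days after treatment. Lung cancer cell lines in 1536-well plates had been treated by pin tool the day after seeding with one drug alone or a fixed anchor-drug dose plus five library-drug doses (not always all listed) in √10 steps, and nuclei were counted on 4× images. Relative viability is the ratio of nuclei in treated wells to nuclei in vehicle wells, taken as the median of duplicate plates.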

PC-3 [JPC-3] = system: PC-3 [JPC-3]
Procedure, shortened: as §1

RERF-LC-KJ = system: RERF-LC-KJ
Procedure, shortened: as §1

LU99A = system: LU99A
Procedure, shortened: as §1

HCC-78 = system: HCC-78
Procedure, shortened: as §1

NCI-H3122 = system: NCI-H3122
Procedure, shortened: as §1

NCI-H1793 = system: NCI-H1793
Procedure, shortened: as §1

NCI-H1944 = system: NCI-H1944
Procedure, shortened: as §1

NCI-H1395 = system: NCI-H1395
Procedure, shortened: as §1

ChaGo-K-1 = system: ChaGo-K-1
Procedure, shortened: as §1

HCC-366 = system: HCC-366
Procedure, shortened: as §1

Q: For `CCN(CC)CCCCNc1ncc2cc(-c3cc(OC)cc(OC)c3)c(NC(=O)NC(C)(C)C)nc2n1` + Cc1cc(Nc2cc(N3CCN(C)CC3)nc(Sc3ccc(NC(=O)C4CC4)cc3)n2)n[nH]1 [Tozasertib] (partner 0.1 µM), which relative viability (NCI-H1755; first compound 0.01 µM) is on record?
A: Its relative viability is 0.624.

Q: And the relative viability (NCI-H1755; first compound 0.03162 µM)?
A: The relative viability was 0.61.

Q: And the relative viability (NCI-H1755; first compound 0.1 µM)?
A: Its relative viability is 0.607.

Q: And the relative viability (NCI-H1755; first compound 0.3162 µM)?
A: The relative viability was 0.622.

Q: What about the relative viability (NCI-H1755; first compound 1 µM) of the same compound?
A: The relative viability was 0.535.

Q: And the relative viability (PC-3 [JPC-3]; first compound 0.01 µM)?
A: Its relative viability is 0.988.

Q: What about the relative viability (PC-3 [JPC-3]; first compound 0.03162 µM) of the same compound?
A: Its relative viability is 0.958.

Q: What about the relative viability (PC-3 [JPC-3]; first compound 0.1 µM) of the same compound?
A: The relative viability was 1.09.

Q: What about the relative viability (PC-3 [JPC-3]; first compound 0.3162 µM) of the same compound?
A: Its relative viability is 0.892.

Q: And the relative viability (PC-3 [JPC-3]; first compound 1 µM)?
A: The relative viability was 0.632.

Q: What about the relative viability (RERF-LC-KJ; first compound 0.01 µM) of the same compound?
A: The relative viability was 0.547.

Q: What about the relative viability (RERF-LC-KJ; first compound 0.03162 µM) of the same compound?
A: Its relative viability is 0.617.

Q: And the relative viability (RERF-LC-KJ; first compound 0.1 µM)?
A: Its relative viability is 0.51.

Q: What about the relative viability (RERF-LC-KJ; first compound 0.3162 µM) of the same compound?
A: Its relative viability is 0.567.

Q: And the relative viability (RERF-LC-KJ; first compound 1 µM)?
A: Its relative viability is 0.489.

Q: And the relative viability (LU99A; first compound 0.01 µM)?
A: Its relative viability is 0.283.

Q: What about the relative viability (LU99A; first compound 0.03162 µM) of the same compound?
A: The relative viability was 0.281.

Q: And the relative viability (LU99A; first compound 0.1 µM)?
A: The relative viability was 0.324.

Q: What about the relative viability (LU99A; first compound 0.3162 µM) of the same compound?
A: The relative viability was 0.269.

Q: What about the relative viability (LU99A; first compound 1 µM) of the same compound?
A: Its relative viability is 0.265.

Q: And the relative viability (HCC-78; first compound 0.01 µM)?
A: Its relative viability is 0.433.

Q: And the relative viability (HCC-78; first compound 0.03162 µM)?
A: Its relative viability is 0.399.

Q: And the relative viability (HCC-78; first compound 0.1 µM)?
A: Its relative viability is 0.507.

Q: And the relative viability (HCC-78; first compound 0.3162 µM)?
A: The relative viability was 0.55.

Q: What about the relative viability (HCC-78; first compound 1 µM) of the same compound?
A: Its relative viability is 0.446.

Q: What about the relative viability (NCI-H3122; first compound 0.01 µM) of the same compound?
A: The relative viability was 0.559.

Q: And the relative viability (NCI-H3122; first compound 0.03162 µM)?
A: The relative viability was 0.439.

Q: And the relative viability (NCI-H3122; first compound 0.1 µM)?
A: Its relative viability is 0.464.

Q: What about the relative viability (NCI-H3122; first compound 0.3162 µM) of the same compound?
A: Its relative viability is 0.326.

Q: What about the relative viability (NCI-H3122; first compound 1 µM) of the same compound?
A: Its relative viability is 0.364.

Q: What about the relative viability (NCI-H1793; first compound 0.01 µM) of the same compound?
A: The relative viability was 0.311.

Q: And the relative viability (NCI-H1793; first compound 0.03162 µM)?
A: Its relative viability is 0.367.

Q: And the relative viability (NCI-H1793; first compound 0.1 µM)?
A: Its relative viability is 0.362.

Q: What about the relative viability (NCI-H1793; first compound 0.3162 µM) of the same compound?
A: The relative viability was 0.348.

Q: And the relative viability (NCI-H1793; first compound 1 µM)?
A: The relative viability was 0.241.

Q: What about the relative viability (NCI-H1944; first compound 0.01 µM) of the same compound?
A: Its relative viability is 0.25.

Q: What about the relative viability (NCI-H1944; first compound 0.03162 µM) of the same compound?
A: The relative viability was 0.27.

Q: What about the relative viability (NCI-H1944; first compound 0.1 µM) of the same compound?
A: Its relative viability is 0.248.

Q: And the relative viability (NCI-H1944; first compound 0.3162 µM)?
A: The relative viability was 0.249.

Q: And the relative viability (NCI-H1944; first compound 1 µM)?
A: Its relative viability is 0.213.

Q: What about the relative viability (NCI-H1395; first compound 0.01 µM) of the same compound?
A: Its relative viability is 0.77.

Q: And the relative viability (NCI-H1395; first compound 0.03162 µM)?
A: Its relative viability is 0.754.

Q: And the relative viability (NCI-H1395; first compound 0.1 µM)?
A: The relative viability was 0.785.

Q: And the relative viability (NCI-H1395; first compound 0.3162 µM)?
A: The relative viability was 0.695.

Q: What about the relative viability (NCI-H1395; first compound 1 µM) of the same compound?
A: The relative viability was 0.547.

Q: And the relative viability (ChaGo-K-1; first compound 0.01 µM)?
A: Its relative viability is 0.233.

Q: And the relative viability (ChaGo-K-1; first compound 0.03162 µM)?
A: Its relative viability is 0.213.

Q: And the relative viability (ChaGo-K-1; first compound 0.1 µM)?
A: Its relative viability is 0.223.

Q: And the relative viability (ChaGo-K-1; first compound 0.3162 µM)?
A: The relative viability was 0.242.

Q: And the relative viability (ChaGo-K-1; first compound 1 µM)?
A: The relative viability was 0.219.

Q: And the relative viability (HCC-366; first compound 0.01 µM)?
A: The relative viability was 0.112.

Q: And the relative viability (HCC-366; first compound 0.03162 µM)?
A: Its relative viability is 0.135.

Q: And the relative viability (HCC-366; first compound 0.1 µM)?
A: Its relative viability is 0.102.

Q: And the relative viability (HCC-366; first compound 0.3162 µM)?
A: Its relative viability is 0.107.

Q: What about the relative viability (HCC-366; first compound 1 µM) of the same compound?
A: Its relative viability is 0.0931.

Source: the supplement of paper PMC10307832
